Patent publication US20110034420A1, “NOVEL CRYSTALLINE FORM B OF (2R)-(3-AMINO-2-FLUOROPROPYL)PHOSPHINIC ACID” (priority 2008, published 2011)

Test: isoelectric point of the zwitterion
Format: physicochemical
Conditions: pH at which it may be crystallised
Excerpt: (2R)-(3-amino-2-fluoropropyl)phosphinic acid is a zwitterion, that may be crystallised at the isoelectric point, in this case approximately at a pH of 5.3.

NC[C@@H](F)C[PH](=O)O [(2R)-(3-amino-2-fluoropropyl)phosphinic acid]
isoelectric point (pH): ~5.3 pH
